Laboratory results as given in ChEMBL document CHEMBL5230095, “Advances in research of spirodienone and its derivatives: Biological activities and synthesis methods” (Eur J Med Chem, 2020).
≈ marks a conversion by molar mass, not a printed value.

Key:
in vitro = details: dog, MDCK cells, TI
Description: Therapeutic index, ratio of TC50 for MDCK cells to IC50 for antiviral activity against influenza A virus (A/Hanfang/359/95(H3N2))

Influenza A virus [1] = assay: microbe, parasite or virus in culture; details: H3N2, MDCK
Description: (§2) Antiviral activity against influenza A virus (A/Hanfang/359/95(H3N2)) infected in MDCK cells

[2] = (§1) Cytotoxicity against MDCK cells; format: toxicity, cell-based, Canis lupus familiaris; details: dog, MDCK cells; read-out: TC50 (the source's name)
Plasmodium falciparum = assay: Antimalarial activity against Plasmodium falciparum 3D7; format: functional, organism-based
K562 = assay: Cytotoxicity against human K562 cells; format: functional, cell-based
Jurkat = assay: Cytotoxicity against human Jurkat cells; format: functional, cell-based
Staphylococcus aureus = assay: Antibacterial activity against Staphylococcus aureus; format: functional
SW480 = assay: Antiproliferative activity against human SW480 cells; format: functional, cell-based
A549 = assay: Antiproliferative activity against human A549 cells; format: functional, cell-based
HL-60 = assay: Antiproliferative activity against human HL-60 cells; format: functional, cell-based
SMMC-7721 = assay: Antiproliferative activity against human SMMC-7721 cells; format: functional, cell-based
MDA-MB-231 = assay: Antiproliferative activity against human MDA-MB-231 cells; format: functional, cell-based
HeLa = assay: Antiproliferative activity against human HeLa cells; format: functional, cell-based
[3] = molecular target: DNA polymerase alpha catalytic subunit (Homo sapiens, UniProt P09884); assay: Inhibition of DNA polymerase alpha (unknown origin)
Chain of DNA polymerase alpha catalytic subunit (P09884 whole entry): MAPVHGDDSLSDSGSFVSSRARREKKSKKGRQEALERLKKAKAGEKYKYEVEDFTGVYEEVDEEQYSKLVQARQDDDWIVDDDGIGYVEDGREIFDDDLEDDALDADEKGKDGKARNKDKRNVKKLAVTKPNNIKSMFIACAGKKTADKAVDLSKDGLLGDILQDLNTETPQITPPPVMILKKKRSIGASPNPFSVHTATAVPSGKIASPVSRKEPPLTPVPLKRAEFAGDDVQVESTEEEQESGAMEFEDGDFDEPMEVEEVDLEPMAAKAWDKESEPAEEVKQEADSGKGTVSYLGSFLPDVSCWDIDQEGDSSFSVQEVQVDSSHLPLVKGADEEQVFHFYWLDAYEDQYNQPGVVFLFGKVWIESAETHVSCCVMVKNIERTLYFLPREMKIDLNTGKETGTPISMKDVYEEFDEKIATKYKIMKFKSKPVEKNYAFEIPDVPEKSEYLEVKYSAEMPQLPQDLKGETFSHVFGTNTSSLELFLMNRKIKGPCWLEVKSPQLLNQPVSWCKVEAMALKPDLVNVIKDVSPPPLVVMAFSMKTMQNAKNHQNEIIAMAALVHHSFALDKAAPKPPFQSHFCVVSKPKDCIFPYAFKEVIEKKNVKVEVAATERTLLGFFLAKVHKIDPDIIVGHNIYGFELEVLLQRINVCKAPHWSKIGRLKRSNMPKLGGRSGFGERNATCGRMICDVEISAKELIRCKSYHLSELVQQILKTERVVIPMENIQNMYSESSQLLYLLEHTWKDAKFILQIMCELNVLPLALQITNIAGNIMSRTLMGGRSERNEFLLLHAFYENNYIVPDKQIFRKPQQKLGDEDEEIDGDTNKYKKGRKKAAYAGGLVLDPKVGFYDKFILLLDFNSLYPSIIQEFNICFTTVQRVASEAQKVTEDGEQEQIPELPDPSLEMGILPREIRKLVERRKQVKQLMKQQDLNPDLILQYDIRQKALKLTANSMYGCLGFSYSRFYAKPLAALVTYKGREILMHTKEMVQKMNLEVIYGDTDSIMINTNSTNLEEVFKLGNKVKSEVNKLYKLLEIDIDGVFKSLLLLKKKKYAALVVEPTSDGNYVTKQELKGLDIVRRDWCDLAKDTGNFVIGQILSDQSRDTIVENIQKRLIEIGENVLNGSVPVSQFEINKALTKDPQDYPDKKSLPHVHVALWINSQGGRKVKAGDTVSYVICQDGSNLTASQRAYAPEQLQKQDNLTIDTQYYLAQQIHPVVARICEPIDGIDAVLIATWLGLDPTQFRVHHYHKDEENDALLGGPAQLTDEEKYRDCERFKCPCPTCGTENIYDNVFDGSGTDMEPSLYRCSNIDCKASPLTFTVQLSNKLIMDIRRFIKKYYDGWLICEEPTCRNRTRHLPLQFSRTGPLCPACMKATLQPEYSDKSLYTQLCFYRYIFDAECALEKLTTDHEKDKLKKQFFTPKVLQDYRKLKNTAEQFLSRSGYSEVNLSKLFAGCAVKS

[4] = Antiinflammatory activity in human polymorphonuclear neutrophils assessed as reduction in LPS-stimulated TNFalpha release; format: functional, Polymorphonuclear neutrophil; design: scale not given: the % may be the effect or the level left
[5] = Antiinflammatory activity in human polymorphonuclear neutrophils assessed as reduction in LPS-stimulated IL-1beta release; format: functional, Polymorphonuclear neutrophil; design: scale not given: the % may be the effect or the level left
[6] = Antiinflammatory activity in human polymorphonuclear neutrophils assessed as reduction in LPS-stimulated IL-8 release; format: functional, Polymorphonuclear neutrophil; design: scale not given: the % may be the effect or the level left
MCF7 = assay: Antiproliferative activity against human MCF7 cells; format: functional, cell-based
Enterococcus faecalis = assay: Antibacterial activity against Enterococcus faecalis; format: functional
Streptococcus pneumoniae = assay: Antibacterial activity against Streptococcus pneumoniae; format: functional
[7] = Inhibition of yeast pre-mRNA splicing; design: species or system Saccharomyces cerevisiae
NCI-H460 = assay: Antiproliferative activity against human NCI-H460 cells; format: functional, cell-based
SF-268 = assay: Antiproliferative activity against human SF-268 cells; format: functional, cell-based
KB = assay: Antiproliferative activity against human KB cells; format: functional, cell-based
Neutrophil elastase = Neutrophil elastase (Homo sapiens, UniProt P08246); assay: Inhibition of human neutrophil elastase activity assessed as reduction in elastase release
Chain of Neutrophil elastase (P08246 whole entry): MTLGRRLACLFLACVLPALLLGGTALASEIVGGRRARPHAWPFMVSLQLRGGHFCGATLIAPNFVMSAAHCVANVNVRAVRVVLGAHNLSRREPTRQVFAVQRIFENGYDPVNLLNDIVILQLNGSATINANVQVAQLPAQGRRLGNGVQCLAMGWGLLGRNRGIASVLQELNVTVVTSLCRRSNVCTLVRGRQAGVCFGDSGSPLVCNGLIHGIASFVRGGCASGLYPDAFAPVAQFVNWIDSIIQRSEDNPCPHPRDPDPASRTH

MDCK = assay: as §1; format: toxicity, cell-based, Canis lupus familiaris; details: dog, mdck; read-out: TC50 (the source's name)
Influenza A virus [8] = details: mdck
Description: as §2

COC1=CC(=O)c2ccc(=O)oc2[C@]12[C@H](c1c(OC)cc(OC)c3ccc(=O)oc13)[C@H]1[C@H](c3c(OC)cc(OC)c4ccc(=O)oc34)C=C(C)C[C@]1(C)C[C@@H]2C=C(C)C
selectivity ratio (in vitro): 7.9 | IC50 (Influenza A virus [1]): 8.62 µM | CC50 [2]: 77.6 µM

CCCCCCCCCCCCCC(=O)C1C(=O)N(Cc2ccccc2)C12C=CC(=O)C=C2 (stereo unspecified)
IC50 (Plasmodium falciparum; Plasmodium falciparum, 3D7): 1.35 µM | IC50 (K562; Homo sapiens, K562): 5.47 µM | IC50 (Jurkat; Homo sapiens, Jurkat): 2.88 µM

COC1=CC(=O)c2ccc(=O)oc2[C@]12[C@H](C=C(C)C)C[C@]1(C)CC(C)=C[C@H](c3c(OC)cc(OC)c4ccc(=O)oc34)[C@H]1[C@@H]2c1c(OC)cc(OC)c2ccc(=O)oc12
selectivity ratio (in vitro): 3.3 | IC50 (Influenza A virus [1]): 17.5 µM | CC50 [2]: 57.7 µM

C/C(=C\C=C/[C@@H](C)/C=C(\C)C(=O)C1[C@@H]2[C@@H](CC(C)C)C(=O)N[C@@]23C[C@]1(O)c1cc(O)c(C)cc1C3=O)C(=O)O (stereo partly specified)
MIC (Staphylococcus aureus): 31.2 µg/mL (≈ 58.2 µM)

COC1=C[C@@]23CCN(C)[C@@H](Cc4c(CN5CCc6cc(OC)c(O)cc6[C@H]5Cc5ccc(O)cc5)cc(OC)c(O)c42)C3=CC1=O
IC50 (SW480): > 40000 µM | IC50 (A549): > 40000 µM | IC50 (HL-60): > 40000 µM | IC50 (SMMC-7721): > 40000 µM

Cc1cc(C)c2c(c1)OCC(=O)N2c1nc(-c2ccc(Cl)cc2Cl)nn1-c1ccccc1
IC50 (MDA-MB-231): 2.85 µM | IC50 (HeLa): 25.2 µM

COc1cc(O)c2c(c1)C1(C=C(OC(C)=O)C(=O)C=C1C)OC2=O (stereo unspecified)
IC50 [3]: 28 µM

O=C1C=CC2(C=C1)CCc1cc(O)cc(O[C@@H]3C[C@H](CO[C@@H]4OC[C@](O)(COC(=O)/C=C/c5ccc(O)c(O)c5)[C@@H]4O)[C@@H](O)[C@H](O)[C@H]3O)c12
Activity [4]: 20% | Activity [5]: 90% | Activity [6]: 28%

O=C1C=CC2(C=C1)CCc1cc(O)cc(O[C@@H]3C[C@H](CO)[C@@H](O)[C@H](O)[C@H]3O)c12
Activity [4]: 38% | Activity [5]: 105% | Activity [6]: 70%

O=C1C=CC2(C=C1)OCC(=O)N2c1nc(-c2cccs2)nn1-c1ccccc1
IC50 (MCF7): 0.00411 µM | IC50 (A549): 0.0252 µM | IC50 (MDA-MB-231): 0.0008 µM | IC50 (HeLa): 0.0453 µM

CC(C)=CCC[C@]1(C)OC2=C(Cl)C(=O)c3c(O)cc(O)cc3[C@@]23CC(=C(C)C)C[C@@H]13
MIC (Staphylococcus aureus): 1 µg/mL (≈ 2.33 µM) | MIC (Enterococcus faecalis): 1 µg/mL (≈ 2.33 µM) | MIC (Streptococcus pneumoniae): 8 µg/mL (≈ 18.6 µM)

COC1=CC(=O)c2ccc(=O)oc2[C@@]12[C@H](C=C(C)C)C[C@]1(C)CC(C)=C[C@H](c3c(OC)cc(OC)c4ccc(=O)oc34)[C@H]1[C@@H]2c1c(OC)cc(OC)c2ccc(=O)oc12
selectivity ratio (in vitro): 6.9 | IC50 (Influenza A virus [1]): 11.1 µM | CC50 [2]: 77.6 µM

C#CCCCCCCC(=O)C1C(=O)N(Cc2ccccc2)C12C=CC(=O)C=C2 (stereo unspecified)
IC50 (Plasmodium falciparum; Plasmodium falciparum, 3D7): 7.7 µM | IC50 (K562; Homo sapiens, K562): 15.3 µM | IC50 (Jurkat; Homo sapiens, Jurkat): 7.4 µM

COC1=CC2(C=CC1=O)CCC(=O)O2 (stereo unspecified)
IC50 [7]: 3000 µM

COc1cc(OC(C)=O)c2c(c1)C1(C=C(OC(C)=O)C(=O)C=C1C)OC2=O (stereo unspecified)
IC50 [3]: 0.68 µM

C/C1=C/[C@@H](C)/C=C(\C)C(=O)[C@@H](C)[C@@H]2[C@@H](C)C(=O)N[C@@]23C[C@]24O[C@](C)(C(=O)c5c(O)c(C)cc(c52)C3=O)C14 (stereo partly specified)
MIC (Staphylococcus aureus): 62.5 µg/mL (≈ 124 µM)

COC(=O)[C@@]1(C2C=CC(=O)C=C2)c2cc(O)cc(O)c2[C@@H](c2ccc(O)cc2)C(=O)c2cc(O)cc(O)c21
IC50 (NCI-H460): 32.7 µM | IC50 (MCF7): 28 µM | IC50 (SF-268): 29.2 µM | IC50 (KB): 33.2 µM | IC50 (HeLa): 25.7 µM

COc1cc2c(c3c1CCC(c1ccccc1)O3)C1C3C(c4ccc(O)c(C)c4OC)C(C(O)(OC)c4ccccc4)C14C(C=CC(=O)C4OC)OC3(c1ccccc1)O2 (stereo unspecified)
IC50 (Neutrophil elastase): 6.53 µM

CC(C)=CCC[C@]1(C)OC2=C(Cl)C(=O)C=C[C@@]23CC(=C(C)C)C[C@@H]13
MIC (Staphylococcus aureus): > 64 µg/mL | MIC (Enterococcus faecalis): > 64 µg/mL | MIC (Streptococcus pneumoniae): > 64 µg/mL

COC1=C[C@@H]2[C@@H]3Cc4c(CN5CCc6cc(OC)c(OC)c7c6[C@@H]5CC75C=CC(=O)C=C5)cc(OC)c(O)c4[C@]2(CCN3C)CC1=O
IC50 (SW480): 18300 µM | IC50 (A549): 18500 µM | IC50 (HL-60): 17400 µM | IC50 (SMMC-7721): 17100 µM

O=C1CCC2(C=CC(=O)C(NC(=O)c3ccccc3)=C2)O1 (stereo unspecified)
IC50 [7]: 600 µM

CC1=C/[C@@H](C)/C=C(\C)[C@]2(O)[C@H](C)[C@@H]3[C@@H](C(C)C)C(=O)N[C@]34C(=O)c3cc(C)c(O)c(c3C(=O)[C@@H]42)C(=O)\C(C)=C\1
MIC (Staphylococcus aureus): 31.2 µg/mL (≈ 58.7 µM)

CCCCCCCCCCCCC/C(O)=C1\C(=O)N(Cc2ccccc2)CC12C=CC(=O)C=C2
IC50 (Plasmodium falciparum; Plasmodium falciparum, 3D7): 2.29 µM | IC50 (K562; Homo sapiens, K562): 1.73 µM | IC50 (Jurkat; Homo sapiens, Jurkat): 1.42 µM

COc1cc(O)cc2c1C(=O)C(Cl)=C1O[C@@](C)(CCC=C(C)C)[C@@H]3CC(=C(C)C)C[C@@]123
MIC (Staphylococcus aureus): > 64 µg/mL | MIC (Enterococcus faecalis): > 64 µg/mL | MIC (Streptococcus pneumoniae): > 64 µg/mL

COC1=CC(=O)c2ccc(=O)oc2[C@@]12[C@H](c1c(OC)cc(OC)c3ccc(=O)oc13)[C@H]1[C@H](c3c(OC)cc(OC)c4ccc(=O)oc34)C=C(C)C[C@]1(C)C[C@@H]2C=C(C)C
selectivity ratio (in vitro): 1.9 | IC50 (Influenza A virus [1]): 9.86 µM | CC50 [2]: 19.2 µM

CC(=O)NC1=CC2(C=CC1=O)CC(NS(=O)(=O)c1ccc(C)cc1)C(=O)O2 (stereo unspecified)
IC50 [7]: 1700 µM

Cc1ccc(S(=O)(=O)NC2CC3(C=CC(=O)C(NC(=O)c4ccccc4)=C3)OC2=O)cc1 (stereo unspecified)
IC50 [7]: 700 µM

O=C1C=CC(=C2C(=O)c3cc(O)cc4c3[C@@](c3ccc(O)cc3)(C(=O)O4)c3cc(O)cc(O)c32)C=C1
IC50 (NCI-H460): > 100 µM | IC50 (MCF7): 99 µM | IC50 (SF-268): > 100 µM | IC50 (KB): > 100 µM | IC50 (HeLa): > 100 µM

CC(=O)NC1=CC2(C=CC1=O)CCC(=O)O2 (stereo unspecified)
IC50 [7]: 800 µM

COC1=CC(=O)c2ccc(=O)oc2C12C(C=C(C)C)CC1(C)CC(C)=CC(c3c(OC)cc(OC)c4ccc(=O)oc34)C1C2c1c(OC)cc(OC)c2ccc(=O)oc12 (racemic; form 1)
IC50 (Influenza A virus [1]): 3.13 µM | CC50 (MDCK): 6.42 µM

COC1=CC(=O)c2ccc(=O)oc2C12C(C=C(C)C)CC1(C)CC(C)=CC(c3c(OC)cc(OC)c4ccc(=O)oc34)C1C2c1c(OC)cc(OC)c2ccc(=O)oc12 (racemic; form 2)
CC50 (MDCK): 25.9 µM | IC50 (Influenza A virus [8]): 2.87 µM

CCCCCCCCCCCCN1C(=O)C(C2(OC)CCC3(C=CC(=O)C=C3)O2)C12C=CC(=O)C=C2 (stereo in doubt; 28)
IC50 (Plasmodium falciparum; Plasmodium falciparum, 3D7): 1.68 µM | IC50 (K562; k562): 0.62 µM | IC50 (Jurkat; jurkat): 0.35 µM

CCCCCCCCCCCCN1C(=O)C(C2(OC)CCC3(C=CC(=O)C=C3)O2)C12C=CC(=O)C=C2 (stereo in doubt; 29)
IC50 (Plasmodium falciparum): 0.91 µM | IC50 (K562; k562): 0.18 µM | IC50 (Jurkat; jurkat): 0.06 µM

C#CCCCCCCCCCCCN1C(=O)C(C2(OCC)CCC3(C=CC(=O)C=C3)O2)C12C=CC(=O)C=C2 (stereo in doubt; 30)
IC50 (Plasmodium falciparum; Plasmodium falciparum, 3D7): 1.72 µM | IC50 (K562; Homo sapiens, K562): 0.32 µM | IC50 (Jurkat; Homo sapiens, Jurkat): 0.14 µM

C#CCCCCCCCCCCCN1C(=O)C(C2(OCC)CCC3(C=CC(=O)C=C3)O2)C12C=CC(=O)C=C2 (stereo in doubt; 31)
IC50 (Plasmodium falciparum): 1.41 µM | IC50 (K562; k562): 0.36 µM | IC50 (Jurkat; jurkat): 0.15 µM

CCOC(=O)C1=C[C@@H](OC(CC)CC)[C@H](NC(C)=O)[C@@H](N)C1 [OSELTAMIVIR]
selectivity ratio (in vitro): 910 | IC50 (Influenza A virus [1]): 3.38 µM | CC50 [2]: 3070 µM

O=c1c(O)c(-c2ccc(O)c(O)c2)oc2cc(O)cc(O)c12 [QUERCETIN]
Activity [4]: 28% | Activity [5]: 4% | Activity [6]: 18%

NC(=O)c1ncn([C@@H]2O[C@H](CO)[C@@H](O)[C@H]2O)n1 [RIBAVIRIN]
selectivity ratio (in vitro): 771 | IC50 (Influenza A virus [1]): 6.19 µM | CC50 [2]: 4770 µM
